This passage reports selectivity ratio and IC50 results from ChEMBL document CHEMBL3997846, “Synthesis and activity of nucleoside-based antiprotozoan compounds” (Bioorg Med Chem, 2017).

Series [1] in a line: Selectivity index, ratio of IC50 for rat L6 cells to IC50 for bloodstream forms of Trypanosoma brucei rhodesiense STIB900 trypomastigotes. Format: toxicity. Conditions: read-out: Ratio IC50.
In another series the test system is Leishmania donovani. In words: Antileishmanial activity against Leishmania donovani MHOM/SD/62/ISCL2D axenic amastigotes after 72 hrs by alamar blue assay. Format: functional. (In general: The colour change of resazurin is a common sign of viable cells or microbes.)
In the next series the test system is Trypanosoma cruzi. In words: Antitrypanosomal activity against Trypanosoma cruzi Tulahuen strain C2C4 amastigote forms harboring LacZ infected in rat L6 cells after 96 hrs by CPRG/Nonidet reagent based photometric method. Particulars: Tulahuen strain C2C4, L6, 96 h. Type of series: functional, cell-based.
Series [2] concerns Trypanosoma brucei rhodesiense. In words: Antitrypanosomal activity against bloodstream forms of Trypanosoma brucei rhodesiense STIB900 trypomastigotes after 72 hrs by alamar blue assay. Type of series: functional. Particulars: STIB900, 72 h.
Series [3] can be described thus: Selectivity index, ratio of IC50 for rat L6 cells to IC50 for Leishmania donovani MHOM/SD/62/ISCL2D axenic amastigotes. Format: toxicity. Conditions: read-out: Ratio IC50.
The next series has as its system Plasmodium falciparum. In words: Antiplasmodial activity against chloroquine resistant Plasmodium falciparum K1 erythrocytic stage assessed as reduction in [3H]hypoxanthine incorporation after 48 hrs by liquid scintillation counting assay. Type of series: functional.
Series [4] in a line: Selectivity index, ratio of IC50 for rat L6 cells to IC50 for Trypanosoma cruzi Tulahuen strain C2C4 amastigote forms harboring LacZ infected in rat L6 cells. Type of series: toxicity, cell-based. Conditions: read-out: Ratio IC50.
Series [5] is described as follows: Selectivity index, ratio of IC50 for rat L6 cells to IC50 for chloroquine resistant Plasmodium falciparum K1 erythrocytic stage. Format: toxicity. Particulars: read-out: Ratio IC50.
Another series concerns L6. The series is described as follows: Cytotoxicity against rat L6 cells assessed as growth inhibition after 72 hrs by alamar blue assay. Format: cell-based. Particulars: L6, 72 h.

As a reminder, the IC50 is the concentration needed to halve the response being measured.

Turning to `CC(=O)O[C@@H]1[C@H](OC(C)=O)[C@@H](CI)O[C@H]1n1cnc2c(N)nc(F)nc21`, the selectivity ratio in [1] worked out at 0.4; in series [3], 0.7; in series [4] it was 0.4; in [5] it was 6. Moreover, the half-inhibitory concentration (IC50) is 9.2 µM in the series on Leishmania donovani; 14 µM in the series with Trypanosoma cruzi; 15 µM in [2]; 1.1 µM in the series on Plasmodium falciparum; 6.3 µM in the series on L6.
With `CC(=O)NC[C@H]1O[C@@H](n2cnc3c(N)nc(Cl)nc32)[C@H](O)[C@@H]1O`, the selectivity ratio in series [1] was 2; in series [3], below 0.7; in series [4] it was 1; in [5], 2. The IC50 in the series with Leishmania donovani is above 280 µM; with Trypanosoma cruzi, 174 µM; in series [2], 79 µM; in the series on Plasmodium falciparum, 88 µM; in the series with L6 it was 189 µM.
As to `CC(=O)O[C@@H]1[C@H](OC(C)=O)[C@@H](CI)O[C@H]1n1cnc2c(N)nc(Cl)nc21`, the selectivity ratio stood at 7 in series [1], 6 in series [3], 9 in [4] and 22 in series [5]. For the same molecule, the IC50 in the series with Leishmania donovani was found to be 15 µM; in the series on Trypanosoma cruzi it was 10 µM; in [2], 12 µM; in the series with Plasmodium falciparum, 3.9 µM; in the series on L6 it was 86 µM.
As for `[N-]=[N+]=NC[C@H]1O[C@@H](n2cnc3c(N)nc(F)nc32)[C@H](O)[C@@H]1O`, the selectivity ratio was determined as 0.1 in [1], 3 in series [3], 0.2 in series [4] and 3 in [5]. The IC50 was found to be 1 µM in the series with Leishmania donovani; 13 µM in the series with Trypanosoma cruzi; 22 µM in [2]; 0.89 µM in the series with Plasmodium falciparum; 3.1 µM with L6.
With `[N-]=[N+]=NC[C@H]1O[C@@H](n2cnc3c(N)nc(Cl)nc32)[C@H](O)[C@@H]1O`, the selectivity ratio in series [1] came to 3; in series [3], 0.8; in series [4], 2; in series [5], 16. Further, the IC50 came to 193 µM with Leishmania donovani; 76 µM with Trypanosoma cruzi; 56 µM in series [2]; 9.8 µM with Plasmodium falciparum; 155 µM with L6.
For the molecule `CC(=O)O[C@@H]1[C@H](OC(C)=O)[C@@H](CN2C(=O)c3ccccc3C2=O)O[C@H]1n1cnc2c(N)nc(F)nc21`, the selectivity ratio in [1] was 0.8; in [3], below 0.6; in series [4] it was 1; in series [5] it was 3. Also, the IC50 was above 200 µM in the series on Leishmania donovani; 103 µM in the series on Trypanosoma cruzi; 160 µM in series [2]; 45 µM in the series with Plasmodium falciparum; 129 µM with L6.
Regarding `CC(=O)NC[C@H]1O[C@@H](n2cnc3c(N)nc(F)nc32)[C@H](O)[C@@H]1O`, the selectivity ratio in series [1] is below 0.6; in series [3], 2; in series [4] it was 1; in series [5], 10. Besides, the half-maximal inhibitory concentration (IC50) with Leishmania donovani was 117 µM; with Trypanosoma cruzi, 178 µM; in series [2] it was above 300 µM; in the series with Plasmodium falciparum, 19 µM; with L6, 182 µM.
`CC(=O)O[C@@H]1[C@H](OC(C)=O)[C@@H](CN2C(=O)c3ccccc3C2=O)O[C@H]1n1cnc2c(N)nc(Cl)nc21`: the selectivity ratio in [1] is 0.9; in series [3] it was 1; in series [4], 1; in series [5] it was 6. The half-inhibitory concentration (IC50) with Leishmania donovani came out at 139 µM; in the series with Trypanosoma cruzi it was 101 µM; in series [2], 161 µM; in the series with Plasmodium falciparum it was 23 µM; with L6 it was 144 µM.
